Measured values as given in ChEMBL document CHEMBL5360614, “Quinoline Thiourea-Based Zinc Ionophores with Antibacterial Activity” (J Med Chem, 2023).
Activity calls are given as the source filed them. No cut-off for these calls is given here.

How the values were obtained:
Lipid bilayer [1] = assay: (§1) Induction of ionophore activity across EYPC:CHOL (8:2) large unilamellar vesicles assessed as transmembrane Zn2+ ion transport by measuring decrease in fluorescence intensity for HPTS dye at 10 uM preincubated for 3 mins followed by ZnCl2 addition and mesured after 7.5 mins by HPTS dye based fluorescence spectrophotometric analysis; conditions: filed as opener, time 10.5 min
Lipid bilayer [2] = assay: as §1, with “dye” for “dye at 10 uM”
Lipid bilayer [3] = assay: as §1, with “cation” for “Zn2+ ion”, “dye” for “dye at 10 uM”, “KCl” for “ZnCl2”; conditions: time 10.5 min
Lipid bilayer [4] = assay: as §1, with “cation” for “Zn2+ ion”, “dye” for “dye at 10 uM”, “LiCl” for “ZnCl2”; conditions: time 10.5 min
Lipid bilayer [5] = assay: as §1, with “cation” for “Zn2+ ion”, “dye” for “dye at 10 uM”, “RbCl” for “ZnCl2”; conditions: time 10.5 min
Lipid bilayer [6] = assay: as §1, with “cation” for “Zn2+ ion”, “dye” for “dye at 10 uM”, “CuCl2” for “ZnCl2”; conditions: filed as opener; time 10.5 min
Lipid bilayer [7] = assay: as §1, with “upto 25” for “at 10”; conditions: filed as opener, time 10.5 min
Lipid bilayer [8] = assay: as §1, with “3 mins in presence of FCCP followed by” for “3 mins followed by”; conditions: filed as opener, time 10.5 min
Lipid bilayer [9] = assay: as §1, with “measuring” for “measuring decrease in”, “CFZ” for “HPTS”; conditions: filed as opener, time 10.5 min
Lipid bilayer [10] = assay: as §1, with “measuring” for “measuring decrease in”, “CFZ” for “HPTS”, “5 to 20” for “10”; conditions: filed as opener; dose 5-20 µM, time 10.5 min
Staphylococcus aureus [11] = assay: Antibacterial activity against Staphylococcus aureus MTCC-96 assessed as reduction in bacterial growth incubated for 14 to 16 hrs in presence of 400 uM ZnCl2 by microbroth dilution method; type: functional; conditions: time 14-16 hrs
Staphylococcus aureus [12] = assay: Antibacterial activity against Staphylococcus aureus MTCC-96 assessed as reduction in bacterial growth incubated for 14 to 16 hrs in presence of EGTA by microbroth dilution method; type: functional; conditions: time 14-16 hrs
Cell membrane = assay: Induction of ionophore activity across Staphylococcus aureus MTCC-96 cell membrane assessed as AQZ directed Zn2+ ion transport by measuring increase in AQZ fluorescence intensity in presence of ZnCl2 and 2-((2-(2-hydroxyethoxy)ethyl)-amino)-N-(quinolin-8-yl)acetamide by fluorescence analysis; type: subcellular; conditions: filed as opener
Staphylococcus aureus [13] = assay: Antibacterial activity against Staphylococcus aureus MTCC-96 assessed as reduction in bacterial growth incubated for 14 to 16 hrs in presence of 100 to 400 uM CuCl2 by microbroth dilution method; type: functional, organism-based; conditions: time 14-16 hrs
Staphylococcus aureus [14] = assay: Antibacterial activity against Staphylococcus aureus MTCC-96 assessed as reduction in bacterial growth incubated for 14 to 16 hrs in presence of 100 to 400 uM MnCl2 by microbroth dilution method; type: functional, organism-based; conditions: time 14-16 hrs
Staphylococcus aureus [15] = assay: Induction of intracellular ROS generation in Staphylococcus aureus MTCC-96 assessed as change in fluorescence intensity at 1 uM incubated for 30 mins in presence of Zn2+ ions by DCF-DA staining based fluorescence spectroscopic analysis; type: functional, organism-based
Staphylococcus aureus [16] = assay: Antibacterial activity against Staphylococcus aureus MTCC-96 assessed as resistance development by measuring fold increase in MIC and measured after 30 days in presence of ZnCl2 by microbroth dilution method; type: functional, organism-based; conditions: time 30.0 day
PBMC [17] = assay: Cytotoxicity against human PBMC cells assessed as reduction in cell viability at 12.5 to 200 uM incubated for 24 hrs by MTT assay; type: toxicity, cell-based; conditions: dose 12.5-200 µM
PBMC [18] = assay: Cytotoxicity against human PBMC cells assessed as reduction in cell viability at 12.5 to 200 uM incubated for 24 hrs in presence of ZnCl2 by MTT assay; type: toxicity, cell-based; conditions: dose 12.5-200 µM
A549 = assay: Cytotoxicity against human A549 cells assessed as reduction in cell viability at 1 to 100 uM incubated for 44 hrs by MTT assay; type: toxicity, cell-based; conditions: a549, 44 h, dose 1-100 µM
HCT-116 = assay: Cytotoxicity against human HCT-116 cells assessed as reduction in cell viability at 1 to 100 uM incubated for 44 hrs by MTT assay; type: toxicity, cell-based; conditions: hct-116, 44 h, dose 1-100 µM
Staphylococcus aureus [19] = assay: In vivo antibacterial activity against Staphylococcus aureus MTCC-96 infected in Balb/c mouse assessed as reduction in bacterial load by measuring CFU in liver at 31.6 microM/Kg, iv for 7 days in presence of ZnCl2 by CFU assay; type: functional, organism-based; conditions: time 7.0 day
Staphylococcus aureus [20] = assay: In vivo antibacterial activity against Staphylococcus aureus MTCC-96 infected in Balb/c mouse assessed as bacterial load by measuring CFU in spleen at 156.5 microM/Kg, iv for 7 days by CFU assay; type: functional, organism-based; conditions: time 7.0 day
Staphylococcus aureus [21] = assay: In vivo antibacterial activity against Staphylococcus aureus MTCC-96 infected in Balb/c mouse assessed as less dilated hepatic artery at 156.5 microM/Kg, iv for 7 days by hematoxylin and eosin staining based microscopic analysis; type: functional, organism-based; conditions: time 7.0 day
Staphylococcus aureus [22] = assay: In vivo antibacterial activity against Staphylococcus aureus MTCC-96 infected in Balb/c mouse assessed as hepatocyte distribution at 156.5 microM/Kg, iv for 7 days by hematoxylin and eosin staining based microscopic analysis; type: functional, organism-based; conditions: time 7.0 day
Staphylococcus aureus [23] = assay: In vivo antibacterial activity against Staphylococcus aureus MTCC-96 infected in Balb/c mouse assessed as normal architecture of portal vein in liver tissue at 31.6 microM/Kg, iv for 7 days in presence of ZnCl2 by hematoxylin and eosin staining based microscopic analysis; type: functional, organism-based; conditions: time 7.0 day
Staphylococcus aureus [24] = assay: In vivo antibacterial activity against Staphylococcus aureus MTCC-96 infected in Balb/c mouse assessed as uniform distribution of hepatocytes in liver tissue at 31.6 microM/Kg, iv for 7 days in presence of ZnCl2 by hematoxylin and eosin staining based microscopic analysis; type: functional, organism-based; conditions: time 7.0 day
Staphylococcus aureus [25] = assay: In vivo antibacterial activity against Staphylococcus aureus MTCC-96 infected in Balb/c mouse assessed as uniform distribution of hepatocytes in liver tissue at 156.5 microM/Kg, iv for 7 days by hematoxylin and eosin staining based microscopic analysis; type: functional, organism-based; conditions: time 7.0 day
Staphylococcus aureus [26] = assay: In vivo antibacterial activity against Staphylococcus aureus MTCC-96 infected in Balb/c mouse assessed as uniform distribution of sinusoids in liver tissue at 156.5 microM/Kg, iv for 7 days by hematoxylin and eosin staining based microscopic analysis; type: functional, organism-based; conditions: time 7.0 day
Staphylococcus aureus [27] = assay: Antibacterial activity against gentamicin-and methicillin-resistant Staphylococcus aureus ATCC 33592 assessed as reduction in bacterial growth incubated for 14 to 16 hrs in presence of 100 uM ZnCl2 by microbroth dilution method; type: functional; conditions: time 14-16 hrs
Staphylococcus aureus [28] = assay: Antibacterial activity against gentamicin-and methicillin-resistant Staphylococcus aureus ATCC 33592 assessed as reduction in bacterial growth incubated for 14 to 16 hrs in presence of 400 uM ZnCl2 by microbroth dilution method; type: functional; conditions: time 14-16 hrs

With `FC(F)(F)c1cc(NC(=S)Nc2cccc3ccc(-n4cnc5ccccc54)nc23)cc(C(F)(F)F)c1` the Activity (Lipid bilayer [1]) was “Active”, the EC50 (Lipid bilayer [2]) was 5.49 µM and the Activity (Lipid bilayer [3]) was “inactive”. For the same compound, the Activity (Lipid bilayer [4]) was “inactive”, the Activity (Lipid bilayer [5]) was “inactive” and the Activity (Lipid bilayer [6]) was “Active”. The Activity (Lipid bilayer [7]) was “Active”, the Activity (Lipid bilayer [8]) was “Active” and the Activity (Lipid bilayer [9]) was “Active”. The Activity (Lipid bilayer [10]) was “Dose-Dependent Effect”, the MIC (Staphylococcus aureus [11]) was 0.47 µM and the MIC (Staphylococcus aureus [12]) was 6.25 µM. The Activity (Cell membrane) was “Active”, the Activity (Staphylococcus aureus [13]) was “inactive” and the Activity (Staphylococcus aureus [14]) was “inactive”. For the same compound, the Activity (Staphylococcus aureus [15]) was “Active”, the Activity (Staphylococcus aureus [16]) was “inactive” and the Activity (PBMC [17]) was “Non-Toxic”. The Activity (PBMC [18]) was “Non-Toxic”, the Activity (A549) was “Non-Toxic” and the Activity (HCT-116) was “Non-Toxic”. For the same compound, the Activity (Staphylococcus aureus [19]) was “Active”, the Activity (Staphylococcus aureus [20]) was “Active” and the Activity (Staphylococcus aureus [21]) was “Active”. For the same compound, the Activity (Staphylococcus aureus [22]) was “Active”, the Activity (Staphylococcus aureus [23]) was “Active” and the Activity (Staphylococcus aureus [24]) was “Active”. The Activity (Staphylococcus aureus [25]) was “Active”, the Activity (Staphylococcus aureus [26]) was “Active” and the MIC (Staphylococcus aureus [27]) was 3.13 µM. It also gave an MIC (Staphylococcus aureus [28]) of 2 µM.
